The text below walks through data of patent US5010090A, “N-(butenyl substituted) azaheterocyclic carboxylic acids” (Novo Nordisk A/S., priority 1985, dated 1991).

For orientation: IC50 means the concentration at which inhibition is half-maximal. The low end stands for inhibition by little substance, the high end for a need for much substance. One may read the ED50 as the dose that gives a 50% effect, or the effect in half of the subjects. A low value points to an effect at a small dose.

Assay [1] has as its system GABA uptake. Kind of assay: GABA-uptake inhibition in vitro, essentially as described by Fjalland, 3H-GABA as substrate. Type of assay: biochemical. Conditions: two separate experiments, 3-5 concentrations, 3H-GABA substrate (25 mM [sic]). How it is done: GABA-uptake inhibition was measured essentially as described by Fjalland (Acta Pharmacol. et. Toxicol. (1978), 42, 73-76) using 25 mM of 3H-GABA as a substrate. The results obtained appears from Table 4, the obtained values being from two separate experiments using 3-5 different concentrations of test compound.

Assay [2] deals with DMCM induced clonic convulsions. In words: Inhibition of DMCM induced convulsions in vivo. Conditions: Mus musculus, ip, 0.5 h; 50% inhibition of DMCM induced clonic convulsions; i.p. 30 min before 15 mg/kg DMCM i.p.; female NMRI mice. How it is done:
Inhibition of DMCM induced convulsions was measured on female NMRI mice (20±2 g).
The test compounds were injected intraperitoneally 30 min. before an intraperitoneal injection of 15 mg/kg of DMCM.

Assay [3] concerns GABA uptake. Conditions: literature; cited from earlier work.

Compound `Cc1ccsc1C(=CCCN1CCCC(C(=O)O)C1)c1cccs1` (stereo not shown) [Compound 1, N-(4-(3-Methylthien-2-yl)-4-(thien-2-yl)but-3-enyl)nipecotic acid] returned an IC50 in assay [1] of 92 nM.

`Cn1cccc1C(=CCCN1CCCC(C(=O)O)C1)c1cccn1C` (stereo not shown) [Compound 2, N-(4,4-Bis(N-methylpyrrol-2-yl)but-3-enyl)nipecotic acid] registered an IC50 in assay [1] of 52 nM.

For the compound `Cc1ccsc1C(=CCCN1CCC=C(C(=O)O)C1)c1cccs1` [Compound 3, N-(4-(3-Methylthien-2yl)-4-(thien-2-yl)but-3-enyl)guvacine], in assay [1], the IC50 was found to be 134 nM.

For `Cc1ccsc1C(=CCCN1CCC(CC(=O)O)C1)c1cccs1` (stereo not shown) [Compound 4], it took 72 nM to reach half-maximal inhibition in assay [1] (IC50).

Consider `Cc1ccsc1C(=CCCN1CCCC(C(=O)O)C1)c1sccc1C` (stereo not shown) [Compound 5, N-(4,4-Bis(3-methylthien-2-yl)but-3-enyl)nipecotic acid], for which, in assay [1], half-maximal inhibition (IC50) was put at 87 nM.

Consider `Cc1ccsc1C(=CCCN1CCC[C@@H](C(=O)O)C1)c1sccc1C` [Compound 6, R-N-(4,4-bis(3-methylthien-2-yl)but-3-enyl)-nipecotic acid], for which, in assay [1], the IC50 is 74 nM. The ED50 in assay [2] turned out to be 1.2 mg/kg.

In turn, `Cc1ccsc1C(=CCCN1CCC(CC(=O)O)C1)c1sccc1C` (stereo not drawn) [Compound 7, N-(4,4-Bis(3-methylthien-2-yl)but-3-enyl)-β-homoproline] had an IC50 in assay [1] of 69 nM.

For the compound `O=C(O)C1CCCN(CCC=C(c2sccc2Br)c2sccc2Br)C1` (stereo not shown) [Compound 8, N-(4,4-Bis(3-bromothien-2-yl)but-3-enyl)nipecotic acid], in assay [1], the IC50 was 96 nM.

Take `O=C(O)C1CCCN(CCC=C(c2ccccc2)c2cccs2)C1` (stereo not shown) [Compound 9, N-(4-phenyl-4-(2-thienyl)-3-butenyl)nipecotic acid, reference compound]: inhibition in assay [1] was half-maximal at 465 nM (IC50). The “inhibition of GABA uptake” value in assay [3] was “active inhibitors of GABA uptake”.

The compound `O=C(O)C1CCCN(CCC=C(c2ccccc2)c2ccccc2)C1` (stereo not shown) [Compound 10, N-(4,4-diphenyl-3-butenyl)nipecotic acid, reference compound] had an IC50 in assay [1] of 353 nM. For the same compound, the “inhibition of GABA uptake” value in assay [3] is recorded as “active inhibitors of GABA uptake”.

`CCOC(=O)[C@@H]1CCCN(CCC=C(c2sccc2C)c2sccc2C)C1` [Example 23, R-N-(4,4-bis(3-methylthien-2-yl)but-3-enyl)-nipecotic acid ethyl ester] had an ED50 in assay [2] of 2.5 mg/kg.

Consider `O=C(O)C1=CCCN(CCC=C(c2ccccc2)c2ccccc2)C1` [SK&F 100330A, N-(4,4-diphenyl-3-butenyl)guvacine], for which, in assay [3], the “inhibition of GABA uptake” value was “active inhibitors of GABA uptake”.

Consider `O=C(O)CC1CCN(CCC=C(c2ccccc2)c2ccccc2)C1` (stereo not drawn) [SK&F 100561, N-(4,4-diphenyl-3-butenyl)-β-homoproline], for which the “inhibition of GABA uptake” value in assay [3] is “active inhibitors of GABA uptake”.
